Test [1] deals with Acetylcholinesterase (Electrophorus electricus) (UniProt O42275). The test can be described thus: Ratio of tacrine IC50 to compound IC50 for electric eel AChE.
The target is the same in test [2]. The test can be described thus: Ratio of galanthamine IC50 to compound IC50 for electric eel AChE.
Test [3] in a line: Metal chelating activity of the compound assessed as formation of copper complex at 35 uM by UV-vis spectrometry. The class given is functional.
Test [4] can be described thus: Metal chelating activity of the compound assessed as formation of iron complex at 35 uM by UV-vis spectrometry. The class given is functional.
In test [5] the target is Amyloid-beta precursor protein (Homo sapiens) (UniProt P05067). The test can be described thus: Inhibition of amyloid beta (1 to 42) (unknown origin) aggregation at 20 uM by thioflavin T based fluorometric assay.
For test [6], the target named is Acetylcholinesterase (Homo sapiens) (UniProt P22303). The experiment in a line: Mixed inhibition of AChE (unknown origin) using ATC as substrate assessed as acetylcholine hydrolysis incubated 15 mins prior to substrate addition by Lineweaver-Burk plot analysis.
For another test, the target named is Cholinesterase (Equus caballus, UniProt P81908).
A further test has as its target Acetylcholinesterase (Electrophorus electricus, UniProt O42275).

Each structure is given as a SMILES string. Active and inactive are the calls of the source. The calls are words filed in the database; no cut-off is given here.

Chain of Cholinesterase (P81908 whole entry): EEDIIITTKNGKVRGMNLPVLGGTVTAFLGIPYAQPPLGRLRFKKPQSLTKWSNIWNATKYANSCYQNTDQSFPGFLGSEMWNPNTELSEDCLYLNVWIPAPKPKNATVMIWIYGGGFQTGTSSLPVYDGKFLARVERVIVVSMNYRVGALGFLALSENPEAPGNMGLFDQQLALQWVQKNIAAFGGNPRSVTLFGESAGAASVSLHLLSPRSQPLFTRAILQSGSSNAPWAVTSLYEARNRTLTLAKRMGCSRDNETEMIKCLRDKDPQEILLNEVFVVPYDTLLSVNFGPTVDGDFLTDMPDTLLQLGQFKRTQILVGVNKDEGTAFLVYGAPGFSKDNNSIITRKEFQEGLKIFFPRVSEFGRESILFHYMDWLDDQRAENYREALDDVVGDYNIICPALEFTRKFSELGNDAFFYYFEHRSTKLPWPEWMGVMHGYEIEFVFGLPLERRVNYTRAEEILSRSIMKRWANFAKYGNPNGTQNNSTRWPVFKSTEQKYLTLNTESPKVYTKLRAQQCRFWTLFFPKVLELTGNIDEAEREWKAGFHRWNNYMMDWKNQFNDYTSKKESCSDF
Chain of Acetylcholinesterase (O42275 whole entry): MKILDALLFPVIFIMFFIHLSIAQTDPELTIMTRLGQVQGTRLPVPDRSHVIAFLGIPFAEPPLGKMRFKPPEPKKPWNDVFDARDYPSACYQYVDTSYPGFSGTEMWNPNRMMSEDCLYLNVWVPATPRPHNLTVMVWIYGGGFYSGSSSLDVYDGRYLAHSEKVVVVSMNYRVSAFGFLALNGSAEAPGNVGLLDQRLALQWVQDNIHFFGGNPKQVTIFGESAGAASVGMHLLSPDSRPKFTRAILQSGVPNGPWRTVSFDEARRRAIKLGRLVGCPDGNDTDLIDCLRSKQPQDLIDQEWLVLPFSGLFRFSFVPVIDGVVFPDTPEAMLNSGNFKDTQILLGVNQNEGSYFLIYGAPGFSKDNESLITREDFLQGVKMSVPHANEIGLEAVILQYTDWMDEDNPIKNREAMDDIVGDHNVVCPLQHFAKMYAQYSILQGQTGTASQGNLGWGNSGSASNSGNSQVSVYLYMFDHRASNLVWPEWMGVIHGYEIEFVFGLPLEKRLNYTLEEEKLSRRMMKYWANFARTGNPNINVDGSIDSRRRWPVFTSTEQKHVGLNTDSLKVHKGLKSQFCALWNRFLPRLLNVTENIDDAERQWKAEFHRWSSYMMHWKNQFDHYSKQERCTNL
Chain of Amyloid-beta precursor protein (Homo sapiens) (P05067 whole entry): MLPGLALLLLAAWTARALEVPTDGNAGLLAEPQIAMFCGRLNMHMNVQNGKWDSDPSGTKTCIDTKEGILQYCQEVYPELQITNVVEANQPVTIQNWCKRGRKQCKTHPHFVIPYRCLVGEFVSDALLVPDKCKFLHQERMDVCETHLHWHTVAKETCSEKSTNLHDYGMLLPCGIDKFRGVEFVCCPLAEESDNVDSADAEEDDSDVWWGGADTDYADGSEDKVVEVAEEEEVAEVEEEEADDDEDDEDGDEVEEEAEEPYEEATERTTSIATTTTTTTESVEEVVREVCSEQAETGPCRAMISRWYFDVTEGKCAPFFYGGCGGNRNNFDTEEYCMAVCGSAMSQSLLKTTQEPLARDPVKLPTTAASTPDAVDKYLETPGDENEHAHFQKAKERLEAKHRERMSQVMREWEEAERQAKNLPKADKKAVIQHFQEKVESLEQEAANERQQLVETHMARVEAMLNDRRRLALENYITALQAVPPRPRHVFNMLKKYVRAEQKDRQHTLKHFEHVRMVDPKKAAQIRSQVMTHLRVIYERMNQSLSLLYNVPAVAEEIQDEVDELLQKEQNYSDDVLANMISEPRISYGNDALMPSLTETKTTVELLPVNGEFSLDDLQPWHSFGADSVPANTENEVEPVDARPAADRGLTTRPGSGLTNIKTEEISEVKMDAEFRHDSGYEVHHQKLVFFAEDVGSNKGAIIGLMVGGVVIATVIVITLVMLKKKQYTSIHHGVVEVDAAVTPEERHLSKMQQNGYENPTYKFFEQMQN
Chain of Acetylcholinesterase (Electrophorus electricus) (O42275 24-633 limits assumed): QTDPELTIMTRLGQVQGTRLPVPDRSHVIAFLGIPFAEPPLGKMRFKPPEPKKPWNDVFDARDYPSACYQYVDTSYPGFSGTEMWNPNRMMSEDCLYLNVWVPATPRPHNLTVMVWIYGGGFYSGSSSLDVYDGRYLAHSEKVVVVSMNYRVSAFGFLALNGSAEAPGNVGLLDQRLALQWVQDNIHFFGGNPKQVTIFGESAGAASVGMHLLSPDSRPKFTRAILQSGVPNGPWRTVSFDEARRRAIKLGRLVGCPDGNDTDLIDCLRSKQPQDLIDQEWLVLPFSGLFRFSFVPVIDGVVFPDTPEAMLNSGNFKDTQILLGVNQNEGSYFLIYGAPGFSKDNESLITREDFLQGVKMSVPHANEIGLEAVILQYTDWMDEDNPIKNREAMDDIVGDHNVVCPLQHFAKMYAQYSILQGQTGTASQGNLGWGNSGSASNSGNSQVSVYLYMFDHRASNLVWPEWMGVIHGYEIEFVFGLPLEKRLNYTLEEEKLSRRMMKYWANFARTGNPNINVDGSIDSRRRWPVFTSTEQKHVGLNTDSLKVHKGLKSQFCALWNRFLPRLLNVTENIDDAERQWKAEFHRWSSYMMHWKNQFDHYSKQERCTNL
Chain of Acetylcholinesterase (Homo sapiens) (P22303 whole entry): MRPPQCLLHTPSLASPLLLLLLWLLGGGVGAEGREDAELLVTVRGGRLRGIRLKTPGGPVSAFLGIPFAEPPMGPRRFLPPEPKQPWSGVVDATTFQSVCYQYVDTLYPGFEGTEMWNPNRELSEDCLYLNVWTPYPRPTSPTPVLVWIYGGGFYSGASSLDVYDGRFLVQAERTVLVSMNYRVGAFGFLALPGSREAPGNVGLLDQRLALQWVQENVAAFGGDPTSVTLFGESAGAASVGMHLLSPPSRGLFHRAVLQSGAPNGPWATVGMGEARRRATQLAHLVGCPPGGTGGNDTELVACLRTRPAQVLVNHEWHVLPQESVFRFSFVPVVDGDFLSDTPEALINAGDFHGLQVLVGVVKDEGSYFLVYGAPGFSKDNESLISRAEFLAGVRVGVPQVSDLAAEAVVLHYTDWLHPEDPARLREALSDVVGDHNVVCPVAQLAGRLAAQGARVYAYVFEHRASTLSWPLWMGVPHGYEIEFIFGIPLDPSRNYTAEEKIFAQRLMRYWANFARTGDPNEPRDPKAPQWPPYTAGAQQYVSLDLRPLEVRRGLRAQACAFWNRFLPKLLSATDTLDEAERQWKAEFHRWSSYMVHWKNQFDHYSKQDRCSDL

Take `CCN(CC)CCCCOc1ccc2c(=O)cc(-c3ccccc3)oc2c1C`: the Ratio IC50 in test [1] was found to be 2; in test [2], 20. Further, the outcome in test [3] and in test [4] was Active. Further, the inhibition – broadly, the percentage by which the read-out fell short of the control – in test [5] worked out at 39%. Moreover, the inhibition result in test [6] was “Active”. For the same compound, the IC50 – broadly, the concentration needed to halve the response being measured – against Cholinesterase is 4820 nM; against Acetylcholinesterase it was 130 nM.
Regarding `Cc1c(OCCCN2CCC(O)CC2)ccc2c(=O)cc(-c3ccccc3)oc12`, in test [5], the inhibition was 21.4%. The IC50 on Cholinesterase was 4120 nM; on Acetylcholinesterase it was 2940 nM.
As for `Cc1c(OCCCN2CCCCC2C)ccc2c(=O)cc(-c3ccccc3)oc12` (stereo unspecified), in test [5], the inhibition was 41.7%. For the same compound, the IC50 worked out at 5840 nM against Cholinesterase and 590 nM at Acetylcholinesterase.
In test [5], `Cc1c(OCCCCCCN2CCCC2)ccc2c(=O)cc(-c3ccccc3)oc12` returned an inhibition of 38.1%. Further, the IC50 against Cholinesterase came out at 3280 nM; against Acetylcholinesterase, 764 nM.
Regarding `Cc1c(OCCCCN2CCCCC2C)ccc2c(=O)cc(-c3ccccc3)oc12` (stereo unspecified), in test [5], the inhibition was 37.3%. The IC50 is more than 100000 nM against Cholinesterase and 225 nM against Acetylcholinesterase.
In turn, `CCN(CC)CCCCCOc1ccc2c(=O)cc(-c3ccccc3)oc2c1C` came in with an inhibition in test [5] of 40.9%. Besides, the IC50 against Cholinesterase is more than 100000 nM; against Acetylcholinesterase it was 264 nM.
Take `Cc1c(OCCCCCCN2CCCCC2C)ccc2c(=O)cc(-c3ccccc3)oc12` (stereo unspecified): the inhibition in test [5] was found to be 43.2%. In addition, the IC50 on Cholinesterase is 3740 nM; against Acetylcholinesterase, 1890 nM.
In the case of `COC(=O)[C@@H]1CCCN1CCCCCOc1ccc2c(=O)cc(-c3ccccc3)oc2c1C`, the results for the IC50 at Cholinesterase and against Acetylcholinesterase were 3930 nM and 19600 nM, respectively.
Compound `Cc1c(OCCCCCN2CCCCC2)ccc2c(=O)cc(-c3ccccc3)oc12` yielded an inhibition in test [5] of 41.7%. Further, the IC50 was 1410 nM against Cholinesterase and 329 nM on Acetylcholinesterase.
For `Cc1c(OCCCCCN2CCOCC2)ccc2c(=O)cc(-c3ccccc3)oc12`, in test [5], the inhibition is 24.6%. Also, the IC50 is more than 100000 nM at Cholinesterase and 8630 nM at Acetylcholinesterase.
In the case of `Cc1c(OCCCCN2CCCCC2)ccc2c(=O)cc(-c3ccccc3)oc12`, the inhibition in test [5] came to 37.5%. Moreover, the IC50 is more than 100000 nM against Cholinesterase and 234 nM at Acetylcholinesterase.
Regarding `Cc1c(OCCN2CCCC2)ccc2c(=O)cc(-c3ccccc3)oc12`, the inhibition in test [5] amounted to 42%. Moreover, the IC50 came out at 2710 nM on Cholinesterase and 2040 nM against Acetylcholinesterase.
`Cc1c(OCCCCN(C)C)ccc2c(=O)cc(-c3ccccc3)oc12`: the inhibition in test [5] amounted to 34.3%. In addition, the IC50 was more than 100000 nM on Cholinesterase and 328 nM against Acetylcholinesterase.
Take `Cc1c(OCCCCCN2CCN(C)CC2)ccc2c(=O)cc(-c3ccccc3)oc12`: in test [5], the inhibition was 39.9%. For the same compound, the IC50 is 4870 nM at Cholinesterase and 1870 nM on Acetylcholinesterase.
For `Cc1c(OCCCCN2CCOCC2)ccc2c(=O)cc(-c3ccccc3)oc12`, in that order: 20.4%, more than 100000 nM and 2880 nM.
In test [5], `Cc1c(OCCCCCN2CCCC2)ccc2c(=O)cc(-c3ccccc3)oc12` yielded an inhibition of 39.3%. Moreover, the IC50 was determined as 1910 nM against Cholinesterase and 243 nM against Acetylcholinesterase.
As to `Cc1c(OCCCCN2CCCC2)ccc2c(=O)cc(-c3ccccc3)oc12`, the inhibition in test [5] was 21.8%. Besides, the IC50 on Cholinesterase is 5700 nM; on Acetylcholinesterase, 238 nM.
Take `Cc1c(OCCCCCN(C)C)ccc2c(=O)cc(-c3ccccc3)oc12`: in test [5], the inhibition worked out at 37.9%. The IC50 was 2540 nM against Cholinesterase and 210 nM against Acetylcholinesterase.
`Cc1c(OCCCN2CCCC2)ccc2c(=O)cc(-c3ccccc3)oc12` displayed an inhibition in test [5] of 27.1%. Besides, the figures for the IC50 on Cholinesterase and on Acetylcholinesterase were 2780 nM and 952 nM, respectively.
For `Cc1c(OCCN2CCC(O)CC2)ccc2c(=O)cc(-c3ccccc3)oc12`, the inhibition in test [5] is 26.9%. Besides, the IC50 is 3210 nM against Cholinesterase and 1830 nM against Acetylcholinesterase.
`Cc1c(OCCCCCCN2CCC(O)CC2)ccc2c(=O)cc(-c3ccccc3)oc12`: the inhibition in test [5] is 39%. Besides, the values for the IC50 against Cholinesterase and at Acetylcholinesterase were 3930 nM and 3150 nM, respectively.
The compound `Cc1c(OCCN2CCCCC2C)ccc2c(=O)cc(-c3ccccc3)oc12` (stereo unspecified) gave an inhibition in test [5] of 30.5%. The IC50 was more than 100000 nM against Cholinesterase and 2100 nM at Acetylcholinesterase.
On the same counts, the results for `Cc1c(OCCCCCN2CCC(O)CC2)ccc2c(=O)cc(-c3ccccc3)oc12` are 37.4%, 4850 nM and 604 nM.
In the case of `Cc1c(OCCCCN2CCN(C)CC2)ccc2c(=O)cc(-c3ccccc3)oc12`, the inhibition in test [5] came out at 31.1%. For the same compound, the IC50 at Cholinesterase worked out at 5750 nM; on Acetylcholinesterase, 1660 nM.
For `Cc1c(OCCCCCN2CCCCC2C)ccc2c(=O)cc(-c3ccccc3)oc12` (stereo unspecified), in that order: 36.7%, 2770 nM and 216 nM.
For the compound `COC(=O)[C@@H]1CCCN1CCCCOc1ccc2c(=O)cc(-c3ccccc3)oc2c1C`, the IC50 was found to be 3820 nM against Cholinesterase and 25300 nM against Acetylcholinesterase.
For the compound `Cc1c(O)ccc2c(=O)cc(-c3ccccc3)oc12`, the IC50 against Cholinesterase was more than 100000 nM; at Acetylcholinesterase it was 87100 nM.
Compound `Cc1c(OCCCCN2CCC(O)CC2)ccc2c(=O)cc(-c3ccccc3)oc12` had an inhibition in test [5] of 22.1%. The IC50 on Cholinesterase is more than 100000 nM; against Acetylcholinesterase, 607 nM.

(Values after ChEMBL document CHEMBL2390956, “Design, synthesis and evaluation of flavonoid derivatives as potential multifunctional acetylcholinesterase inhibitors against Alzheimer's disease” (Bioorg Med Chem Lett, 2013).)
